The structures appear in SMILES notation.

As usually defined, the IC50 is the concentration that gives 50% inhibition.

One test deals with T1, P236L viral reverse transcriptase (Human immunodeficiency virus type 1 group M subtype B, UniProt P04585, P823L).
T1 construct: P236L viral reverse transcriptase is obtained by PNAS 90: 4713-4717 (1993); made in house
The experiment in a line: inhibition of viral reverse transcriptase (P236L), cell free assay. The class given is biochemical. Particulars: 30 minutes at 37° C., read-out: IC50 (Table I, P236L). The text has this: The utility of the pyrimidine-thioalkyl and alkylether anti-AIDS compounds of Formula IA of this invention can be determined by their ability to inhibit viral reverse transcriptase, an enzyme essential for human immunodeficiency virus replication. This enzyme has characteristics which differentiate it from other known cellular polymerases and it is a unique enzyme which is not found in uninfected cells. Viral reverse transcriptase (Wild Type) is found in extracts from bacterial clones prepared according to the procedure described in AIDS Virus Reverse Transcriptase defined by high level expression in Escherichia coli, EMBO J. 6:3133-3137 (1987). P236L viral reverse transcriptase is obtained by PNAS 90: 4713-4717 (1993). Inhibition of this enzyme is determined in a cell free assay which measures the level of radioactive precursors incorporated into DNA. Extracts prepared according to the procedure of Science, 1125-1129 (1981) are incubated in a mixture of inhibitor, 20 mM dithiothreitol, 60 mM sodium chloride, 0.05% NP-40, 10 mM magnesium chloride, 50 mM Tris pH 8.3, 10 μM [^35 S]-labeled deoxynuleoside-5'-triphosphate, 10 μg/ml RNA template (poly rC or poly rG) and 5 μg/ml DNA primer (oligo dG or oligo dT) for 30 minutes at 37° C. Incorporation of radio-labeled percursor is determined by spotting aliquots of the reaction mixture on DE81 paper, washing the papers to remove unincorporated percursor, drying and determining counts. The results (IC50 means the concentration, in μM of drug, required to inhibit the reverse transcriptase activity (P236L and Wild Type) to the extent of 50%) of various assay(s) are combined and reported as % inhibition and/or IC50 (calculated) in Table I (P236L) and Table II (Wild Type).
In the case of `Nc1cc(Cl)nc(SCc2ccc3ccccc3c2)n1` [Example 59, 4-amino-6-chloro-2-(2-naphthylmethylthio)-pyrimidine], the IC50 came to 36 nM. On to `Cc1cccc(CSc2nc(N)cc(Cl)n2)n1` [Example 113, 4-amino-6-chloro-2-[2-(6-methyl)pyridylmethylthio]-pyrimidine], for which the IC50 is 90 nM. On the same count and under the same terms, with `CC(C)c1ccnc(CSc2nc(N)c(Br)c(Cl)n2)c1` [Example 166, 4-amino-5-bromo-6-chloro-2-[2-(4-isopropyl)pyridylmethylthio]-pyrimidine] the figure was 20 nM; with `COc1ccnc(CSc2nc(N)cc(Cl)n2)c1` [Example 123, 4-amino-6-chloro-2-[2-(4-methoxy)pyridylmethylthio]-pyrimidine], 50 nM. The same measure, in the same setting: with `Nc1cc(Cl)nc(SCc2cccc(C(F)(F)F)c2)n1` [Example 38, 4-amino-6-chloro-2-(3-trifluoromethylphenylmethylthio)-pyrimidine] the figure was 1000 nM.

On to `CCc1ccc(CSc2nc(N)cc(Cl)n2)nc1` [Example 134, 4-amino-6-chloro-2-[2-(4-ethyl)pyridylmethylthio]-pyrimidine], for which the IC50 was 50 nM. As to `Nc1cc(Cl)nc(SCc2cccc[n+]2[O-])n1` [Example 147, 2-[2-(4-amino-6-chloro)pyrimidinylthiomethyl]-pyridine-1-oxide], the IC50 amounted to 5000 nM. Still for that read-out and setting: the figure for `Nc1cc(Cl)nc(SCc2cccc3ncccc23)n1` [Example 183, 4-Amino-6-chloro-2-[(quinolin-5-ylmethyl)thio]pyrimidine] is 40 nM. Regarding `COC(=O)c1cccc(CSc2nc(N)cc(Cl)n2)c1` [Example 46, 4-amino-6-chloro-2-(3-carbomethoxyphenylmethylthio)-pyrimidine], the IC50 was 100 nM. Same read-out and setting: with `CC(C)Oc1ccnc(CSc2nc(N)cc(Cl)n2)c1` [Example 126, 4-amino-6-chloro-2-[2-(4-isopropoxy)pyridylmethylthio]-pyrimidine] the figure was 50 nM; with `Nc1cc(Cl)nc(SCc2cc(N3CCCC3)ccn2)n1` [Example 143, 4-amino-6-chloro-2-[2-(4-pyrrolidino)pyridylmethylthio]-pyrimidine], 50 nM; with `Cc1ccc(CSc2nc(N)cc(Cl)n2)nc1` [Example 118, 4-amino-6-chloro-2-[2-(5-methyl)pyridylmethylthio]-pyrimidine], 70 nM.

Regarding `Nc1cc(Cl)nc(SCc2cc3c(cc2Cl)OCO3)n1` [Example 62, 4-amino-6-chloro-2-(6-chloro-5-piperonylmethylthio)-pyrimidine], the IC50 worked out at 20 nM. On the same count and under the same terms, with `CC(C)(O)c1ccnc(CSc2nc(N)cc(Cl)n2)c1` [Example 135] the figure was 100 nM. Consider `Nc1cc(Cl)nc(SCc2cc3ccccc3s2)n1` [Example 158, 4-Amino-6-chloro-2-[(benzothiophen-2-ylmethyl)thio]pyrimidine], for which the IC50 was determined as 1000 nM. For `Nc1cc(Cl)nc(SCc2cc(Cl)cc(Cl)c2)n1` [Example 50, 4-amino-6-chloro-2-(3,5-dichlorophenylmethylthio)-pyrimidine], the IC50 was 330 nM. On the same count and under the same terms, with `Cc1cc(Cl)nc(CSc2nc(N)cc(Cl)n2)c1` [Example 125, 4-amino-6-chloro-2-[2-(6-chloro-4-methyl)pyridylmethylthio]-pyrimidine] the figure was 50 nM; with `Clc1cc(N2CCCC2)nc(SCc2ccccc2)n1` [Example 85, 4-pyrrolidino-6-chloro-2-(benzylthio)-pyrimidine], 30000 nM. With `C=C(C)[C@@H]1CC=C(CSc2nc(N)cc(Cl)n2)CC1` [Example 157, 4-Amino-6-chloro-2-[((S)-(--)perillyl)thio]pyrimidine], the 50% inhibitory concentration (IC50) is 10000 nM. As for `Nc1cc(Cl)nc(SCc2ccc3cccnc3c2)n1` [Example 184, 4-Amino-6-chloro-2-[(quinolin-7-ylmethyl)thio]pyrimidine], the IC50 stood at 3000 nM. Same read-out and setting: the figure for `Cc1cc(CSc2nc(N)cc(Cl)n2)nc(C)n1` [Example 142, 4-amino-6-chloro-2-[4-(2,6-dimethyl)pyrimidinylmethylthio]-pyrimidine] is 500 nM; for `CCOc1ccnc(CSc2nc(N)cc(Cl)n2)c1` [Example 115, 4-amino-6-chloro-2-[2-(4-ethoxy)pyridylmethylthio]-pyrimidine] it is 50 nM; for `Clc1cc(N2CCCCC2)nc(SCc2ccccc2)n1` [Example 84, 4-piperido-6-chloro-2-(benzylthio)-pyrimidine] it is 10000 nM. Regarding `Nc1cc(Cl)nc(SCc2c(F)cccc2F)n1` [Example 34, 4-amino-6-chloro-2-(2,6-difluorophenylmethylthio)-pyrimidine], the IC50 was 10000 nM.

In the case of `CC(C)c1ccnc(CSc2nc(N)cc(Cl)n2)c1` [Example 132, 4-amino-6-chloro-2-[2-(4-isopropyl)pyridylmethylthio]-pyrimidine], the IC50 amounted to 20 nM. On the same count and under the same terms, the figure for `Cn1ccnc1CSc1nc(N)cc(Cl)n1` [Example 176, 4-Amino-6-chloro-2-[(1-methylimidazol-2-ylmethyl)thio]pyrimidine] is 25000 nM; for `Nc1cc(Cl)nc(S(=O)(=O)Cc2cccc(Br)c2)n1` [Example 69, 4-amino-6-chloro-2-(3-bromophenylmethylsulfonyl)pyrimidine] it is 20000 nM; for `Nc1cc(Cl)nc(SCc2cccc(Cl)c2)n1` [Example 42, 4-amino-6-chloro-2-(3-chlorophenylmethylthio)-pyrimidine] it is 500 nM. Turning to `Nc1cc(Cl)nc(SCc2cc(C3CC3)ccn2)n1` [Example 137, 4-amino-6-chloro-2-[2-(4-cyclopropyl)pyridylmethylthio]-pyrimidine], the IC50 is 10 nM. For `Nc1cc(Cl)nc(SC/C=C/c2ccccc2)n1` [Example 64, 4-amino-6-chloro-2-(E-styrylmethylthio)-pyrimidine], the IC50 was 66 nM. For the molecule `COC(=O)c1ccnc(CSc2nc(N)cc(Cl)n2)c1` [Example 156, 4-amino-6-chloro-2-[2-(4-carbomethoxy)pyridylmethylthio]-pyrimidine], the IC50 is 100 nM. For the molecule `Cc1cccc(CSc2nccc(N)n2)c1` [Example 96, 4-amino-2-(3-methylphenylmethylthio)-pyrimidine], the IC50 was determined as 50000 nM. `CCc1ccnc(CSc2nc(N)cc(Cl)n2)c1` [Example 122, 4-amino-6-chloro-2-[2-(4-ethyl)pyridylmethylthio]-pyrimidine]: the IC50 was determined as 10 nM. In the case of `Nc1cc(Cl)nc([S+]([O-])Cc2ccc3ccccc3c2)n1` (stereo not drawn) [Example 68, 4-amino-6-chloro-2-(2-naphthylmethylsulfinyl)-pyrimidine], the IC50 was 5000 nM. In the case of `Nc1nc(SCc2cc(Cl)ccn2)nc(Cl)c1F` [Example 192], the concentration for half-maximal inhibition (IC50) came to 20 nM.

Consider `Nc1cc(Cl)nc(SCc2ccc3ccccc3n2)n1` [Example 61, 4-amino-6-chloro-2-(2-quinolinylmethylthio)-pyrimidine], for which the IC50 amounted to 5000 nM. `Cc1cc(CSc2nc(N)cc(Cl)n2)nc(N(C)C)c1` [Example 154, 4-amino-6-chloro-2-[2-(6-dimethylamino-4-methyl)pyridylmethylthio]-pyrimidine]: the IC50 turned out to be 50 nM. Turning to `Cc1ccnc(CSc2nc(N)cc(Cl)n2)c1` [Example 114, 4-amino-6-chloro-2-[2-(4-methyl)pyridylmethylthio]-pyrimidine], the IC50 turned out to be 10 nM. On to `Clc1cc(N2CCOCC2)nc(SCc2ccccc2)n1` [Example 86, 4-morpholino-6-chloro-2-(benzylthio)-pyrimidine], for which the IC50 came to 40000 nM. With `Nc1cc(Cl)nc(SCc2cccc([N+](=O)[O-])c2)n1` [Example 45, 4-amino-6-chloro-2-(3-nitrophenylmethylthio)-pyrimidine], the IC50 worked out at 110 nM. Consider `Nc1cc(Cl)nc(SCc2cnc3ccccc3n2)n1` [Example 179, 4-Amino-6-chloro-2-[(quinoxalin-2-ylmethyl)thio]pyrimidine], for which the IC50 was 500 nM. Still for that read-out and setting: with `Cc1cc(CSc2nc(N)cc(Cl)n2)no1` [Example 174, 4-Amino-6-chloro-2-[(5-methylisoxazol-3-ylmethyl)thio]pyrimidine] the figure was 500 nM; with `N#Cc1ccnc(CSc2nc(N)cc(Cl)n2)c1` [Example 128, 4-amino-6-chloro-2-[2-(4-cyano)pyridylmethylthio]-pyrimidine], 1000 nM. As for `Cc1ccnc(CSc2nc(N)c(Br)c(Cl)n2)c1` [Example 165, 4-amino-5-bromo-6-chloro-2-[2-(4-methyl)pyridylmethylthio]-pyrimidine], the IC50 stood at 50 nM.

The same test, now with this note: IC50 (Table I, P236L), 30 minutes at 37° C.
Consider `Nc1cc(Cl)nc(SCc2nc3ccccc3s2)n1` [Example 99, 4-amino-6-chloro-2-(2-benzothiazolomethylthio)-pyrimidine], for which it took 500 nM to reach half-maximal inhibition (IC50).
